Source: article PMC7729733, “Biological Properties of New Chiral 2-Methyl-5,6,7,8-tetrahydroquinolin-8-amine-based Compounds” (Molecules, 2020)
Like-named read-outs stand apart in the source and are kept apart here.

Assays:
A2780 cells [1] = test: Cell cycle analysis (propidium iodide, flow cytometry); assay type: cell-based, human; settings: 28 h, mean ± SD of four experiments
Experimental: A2780 cells ([…]) were seeded into a 6-well culture plate in complete medium. After incubation for 24 h, the test compound was added at the indicated concentration and cells were incubated for a further 28 h. After treatment, cells were harvested, centrifugated, and 300–500 × 10^3 cells were fixed and permeabilized with 70% ice-cold ethanol at 4 °C for 20 min. The cells were washed twice with PBS and incubated in a staining solution containing 0.1 mg/mL RNAse and 36 μg/mL propidium iodide for 20 min at room temperature. The DNA content analysis was performed using a FACSCanto II flow cytometer (Becton-Dickinson, Mountain View, CA, USA).

[2] = biological target: T1, human topoisomerase II alpha (Homo sapiens, UniProt P11388); test: Topoisomerase II relaxation assay; assay type: biochemical; settings: supercoiled pBR322; 60 min at 37 °C
T1 construct: purchased Inspiralis
T1 sequence (P11388 whole entry): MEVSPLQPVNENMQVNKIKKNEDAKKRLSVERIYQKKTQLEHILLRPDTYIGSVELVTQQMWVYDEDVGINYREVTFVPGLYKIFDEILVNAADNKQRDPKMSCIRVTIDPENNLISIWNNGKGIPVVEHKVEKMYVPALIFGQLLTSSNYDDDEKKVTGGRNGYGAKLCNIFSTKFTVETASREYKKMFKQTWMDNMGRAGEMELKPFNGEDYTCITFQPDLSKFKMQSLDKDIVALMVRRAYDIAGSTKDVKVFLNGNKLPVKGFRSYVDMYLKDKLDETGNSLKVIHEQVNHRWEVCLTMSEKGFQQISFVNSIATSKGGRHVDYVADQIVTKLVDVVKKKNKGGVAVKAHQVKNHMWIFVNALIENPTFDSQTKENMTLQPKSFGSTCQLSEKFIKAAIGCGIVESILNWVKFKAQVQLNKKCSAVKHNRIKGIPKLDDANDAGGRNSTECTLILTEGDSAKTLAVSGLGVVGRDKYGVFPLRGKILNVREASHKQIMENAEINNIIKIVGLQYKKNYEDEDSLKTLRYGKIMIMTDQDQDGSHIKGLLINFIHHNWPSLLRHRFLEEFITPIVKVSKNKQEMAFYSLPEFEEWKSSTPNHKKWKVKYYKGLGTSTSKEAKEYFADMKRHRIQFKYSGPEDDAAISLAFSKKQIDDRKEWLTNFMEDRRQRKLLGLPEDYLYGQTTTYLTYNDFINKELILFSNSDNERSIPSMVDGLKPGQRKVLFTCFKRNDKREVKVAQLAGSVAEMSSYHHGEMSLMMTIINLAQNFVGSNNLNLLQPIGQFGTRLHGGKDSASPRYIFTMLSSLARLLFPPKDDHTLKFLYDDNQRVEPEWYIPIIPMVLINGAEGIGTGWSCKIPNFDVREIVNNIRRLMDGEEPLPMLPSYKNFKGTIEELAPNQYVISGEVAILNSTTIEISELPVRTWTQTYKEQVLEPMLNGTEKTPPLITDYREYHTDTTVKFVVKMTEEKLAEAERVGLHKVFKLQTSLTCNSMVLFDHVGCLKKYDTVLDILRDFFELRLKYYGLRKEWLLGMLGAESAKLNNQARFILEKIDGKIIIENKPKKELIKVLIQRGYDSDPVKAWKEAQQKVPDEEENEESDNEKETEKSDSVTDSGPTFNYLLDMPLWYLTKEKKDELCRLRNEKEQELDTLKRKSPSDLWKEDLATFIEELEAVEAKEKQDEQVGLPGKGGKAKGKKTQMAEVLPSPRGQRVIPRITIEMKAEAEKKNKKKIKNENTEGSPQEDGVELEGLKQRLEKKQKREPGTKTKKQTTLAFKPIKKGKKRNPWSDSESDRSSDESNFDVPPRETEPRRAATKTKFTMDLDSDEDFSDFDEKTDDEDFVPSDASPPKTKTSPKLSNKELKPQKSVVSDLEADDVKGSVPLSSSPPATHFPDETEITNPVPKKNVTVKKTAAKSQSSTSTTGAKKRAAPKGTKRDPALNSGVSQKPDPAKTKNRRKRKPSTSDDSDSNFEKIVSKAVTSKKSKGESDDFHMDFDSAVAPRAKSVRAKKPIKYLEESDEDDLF
Experimental: (§1) Figure 3SI. Effect of compound (R)-5a on the relaxation of supercoiled pBR322 DNA by human recombinant topoisomerase I or II. Supercoiled plasmid pBR322 DNA (DNA) was incubated with topo I (topo I) or II in the absence (topo II) and in the presence of (R)-5a at indicated […]
(§2) Topoisomerase I and II relaxation assay
(§3) Supercoiled pBR322 plasmid DNA (20 ng, Fermentas Life Sciences) and 5U topoisomerase I (human topoisomerase I, TopoGEN) or alternatively, supercoiled pBR322 plasmid DNA (0.25 μg) and 1U topoisomerase II (human topoisomerase II alpha, Inspiralis) were incubated in the presence of test compound as indicated for 60 min at 37 °C in 20 µL reaction buffer.Reactions were stopped by adding 4 μL stop buffer (5% sodium dodecyl sulfate, 0.125% b romophenol blue, and 30% glycerol), 50 μg/mL proteinase K (Sigma) and incubating for a further 30 min at 37 °C.
(§4) The samples were separated by electrophoresis on a 1% agarose gel at room temperature. The gels were stained with ethidium bromide 1 μg/mL in TAE buffer (0.04 M Tris-acetate and 0.001 M EDTA), transilluminated by UV light, and fluorescence emission was visualized by a CCD camera coupled to a Bio-Rad Gel Doc XR apparatus.
(§5) (1 picture or pasted object on this page, not shown here)

human topoisomerase I = biological target: T2, human topoisomerase I (Homo sapiens, UniProt P11387); test: Topoisomerase I relaxation assay; assay type: biochemical; settings: supercoiled pBR322; 60 min at 37 °C
T2 construct: purchased TopoGEN
T2 sequence (P11387 1-765): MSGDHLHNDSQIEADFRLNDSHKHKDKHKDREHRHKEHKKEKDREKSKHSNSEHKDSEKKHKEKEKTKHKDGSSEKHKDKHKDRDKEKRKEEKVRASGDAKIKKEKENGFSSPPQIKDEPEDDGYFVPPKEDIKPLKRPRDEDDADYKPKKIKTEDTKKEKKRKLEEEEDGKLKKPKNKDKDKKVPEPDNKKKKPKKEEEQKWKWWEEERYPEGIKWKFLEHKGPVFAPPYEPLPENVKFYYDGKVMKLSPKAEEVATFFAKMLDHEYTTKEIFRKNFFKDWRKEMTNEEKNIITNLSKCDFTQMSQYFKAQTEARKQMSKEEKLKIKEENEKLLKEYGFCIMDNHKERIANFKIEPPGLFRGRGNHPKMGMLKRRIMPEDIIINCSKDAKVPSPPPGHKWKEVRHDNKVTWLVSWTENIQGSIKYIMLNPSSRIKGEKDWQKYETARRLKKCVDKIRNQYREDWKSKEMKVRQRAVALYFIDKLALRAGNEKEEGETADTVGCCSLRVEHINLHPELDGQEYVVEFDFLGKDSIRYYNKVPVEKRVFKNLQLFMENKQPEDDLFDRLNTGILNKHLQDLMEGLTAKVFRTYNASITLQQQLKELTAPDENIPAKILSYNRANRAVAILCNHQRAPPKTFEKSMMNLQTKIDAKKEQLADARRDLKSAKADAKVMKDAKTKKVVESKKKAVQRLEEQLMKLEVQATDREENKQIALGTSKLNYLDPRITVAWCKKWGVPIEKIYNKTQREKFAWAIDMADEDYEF
Experimental: as §1, §2, §3, §4, §5

[3] = system: A2780 (ovarian carcinoma); test: Cell growth assay (Trypan blue), A2780 cells; assay type: cell-based, human
Experimental: (§6) A2780 (human ovarian carcinoma) and HT-29 (human colorectal adenocarcinoma) were grown in RPMI 1640 (Sigma Chemical Co., St. Louis, MO, USA), and MSTO-211H (human biphasic mesothelioma) were grown in RPMI 1640 (Sigma Chemical Co.) supplemented with 2.38 g/L Hepes, 0.11 g/L pyruvate sodium, and 2.5 g/L glucose. Then, 1.5 g/L NaHCO3, 10% heat-inactivated fetal calf serum (Biowest), 100 U/mL penicillin, 100 μg/mL streptomycin, and 0.25 μg/mL amphotericin B (Sigma Chemical Co.) were added to the media. The cells were cultured at 37 °C in a moist atmosphere of 5% carbon dioxide in air. Cells (2.5–3 × 10^4) were seeded into each well of a 24-well cell culture plate. After incubation for 24 h, various concentrations of the test agents were added to the complete medium and incubated for a further 72 h. A Trypan blue assay was performed to determine cell viability. Cytotoxicity data were expressed as IC50 values, i.e., the concentration of the test compound able to induce a 50% reduction in cell number compared with control cultures.

[4] = system: supercoiled plasmid pBR322 DNA; test: Unwinding assay, electrophoretic mobility of supercoiled DNA; settings: 3 h at 37 °C
Experimental: Figure 2SI. Effect of compound (R)-5a on the electrophoretic mobility of supercoiled DNA.
Supercoiled plasmid pBR322 DNA was incubated in the absence or in the presence of (R)-5a at indicated concentrations. The effect of solvent alone on DNA was also assayed (solvent).
Supercoiled pBR322 plasmid DNA (0.15 µg, Fermentas Life Sciences) was incubated in TAE buffer (0.04 M Tris, 0.02 M Acetic Acid, EDTA 1 mM, pH=8) with test compound at indicated concentrations for 3 h at 37 °C in 10 μL final volume. 3 μL of loading buffer (0.125% bromophenol blue, 0.125% xylene cyanol and 50% glycerol) was added to each sample and DNA was separated by electrophoresis on a 0.8% agarose gel at room temperature. The gels were stained with ethidium bromide (1 μg/mL) in TAE buffer, transilluminated by UV light, and the fluorescence emission was visualized by a CCD camera coupled to a Bio-Rad Gel Doc XR apparatus.
as §5

[5] = system: HT-29 (colorectal adenocarcinoma); test: Cell growth assay (Trypan blue), HT-29 cells; assay type: cell-based, human; settings: Homo sapiens, HT-29, pure enantiomers, 72 h
Experimental: as §6

A2780 cells [6] = test: Measurement of reactive oxygen species (H2DCF-DA); assay type: cell-based, human; settings: 50 μM, 120 min of incubation
Experimental: The intracellular production of ROS was determined by using the cell-permeable fluorogenic probe 2′,7′-dichlorodihydrofluorescein diacetate (H2DCF-DA). A2780 cells (10^4) were seeded in 96-well plates and incubated for 24 h. The medium was then removed, and the cells washed with PBS and incubated with 10 μM H2DCF-DA in the dark for 20 min at 37 °C and 5% carbon dioxide in air. Afterwards, the medium was removed, cells washed with PBS, and PBS/10 mM glucose containing the test compound was added. ROS production was estimated by monitoring the fluorescence increase of the probe (λex = 480, λem = 530) using a PerkinElmer VICTOR X3 plate reader.

[7] = system: MSTO-211H (biphasic mesothelioma); test: Cell growth assay (Trypan blue), MSTO-211H cells; assay type: cell-based, human; settings: pure enantiomers
Experimental: as §6

[8] = system: HeLa (human cervix carcinoma cells); settings: read-out: IC50 HeLa; reference compound; cited from earlier work
[9] = system: HMEC-1 (human dermal microvascular endothelial cells); settings: read-out: IC50 HMEC-1; reference compound; cited from earlier work
[10] = system: CEM (human T-lymphocyte cells); settings: read-out: IC50 CEM; reference compound; cited from earlier work
HCT-116 = system: HCT-116; set-up: method as in PMID 30253345; settings: cytotoxicity; cited from earlier work
[11] = system: MSTO-211H (biphasic mesothelioma); settings: reference compound; cited from earlier work
[12] = system: A2780 (ovarian carcinoma); settings: reference compound; cited from earlier work
[13] = system: HT-29 (colorectal adenocarcinoma); settings: reference compound; cited from earlier work

Compound: Cc1ccc2c(n1)[C@H](/N=C/c1ncc[nH]1)CCC2 [(R)-5a, (E)-1-(1H-imidazol-2-yl)-N-(2-methyl-5,6,7,8-tetrahydroquinolin-8-yl)methanimine]
- cell percentage in G0/G1 (A2780 cells [1]; 2.5 μM): 61.2 ± 0.9%
- cell percentage in G2/M (A2780 cells [1]; 2.5 μM): 13.4 ± 0.7%
- cell percentage in S (A2780 cells [1]; 2.5 μM): 25.5 ± 0.6%
- cell percentage in G0/G1 (A2780 cells [1]; 5 μM): 63.7 ± 0.6%
- cell percentage in G2/M (A2780 cells [1]; 5 μM): 12.1 ± 0.6%
- cell percentage in S (A2780 cells [1]; 5 μM): 24.1 ± 1.1%
- cell percentage in G0/G1 (A2780 cells [1]; 10 μM): 70.3 ± 1.2%
- cell percentage in G2/M (A2780 cells [1]; 10 μM): 9.8 ± 0.6%
- cell percentage in S (A2780 cells [1]; 10 μM): 19.8 ± 0.9%
- cell percentage in G0/G1 (A2780 cells [1]; 20 μM): 71.6 ± 0.7%
- cell percentage in G2/M (A2780 cells [1]; 20 μM): 9.0 ± 0.8%
- cell percentage in S (A2780 cells [1]; 20 μM): 19.5 ± 0.4%
- effect on the relaxation ability of topoisomerase II [2]: unable to induce
- effect on the relaxation ability of topoisomerase I (human topoisomerase I): unable to induce
- inhibitory effect on the A2780 cell line with respect to its counterpart (S)-5a ([3]; R enantiomer versus S enantiomer): ~3 fold
- IC50 ([3]; pure enantiomers, 72 h, Trypan blue): 5400 ± 1300 nM
- modification in the electrophoretic migration of supercoiled plasmid DNA [4]: unable to induce any modification
- IC50 [5]: > 20000 nM
- intracellular amount of ROS with respect to untreated cells (control) (A2780 cells [6]): more than 4 fold
- IC50 ([7]; Homo sapiens, MSTO-211H, 72 h, Trypan blue): 15100 ± 1500 nM
- cytotoxic effect on MSTO-211H (in words) [7]: appreciable inhibition on cell growth

Compound: COc1ccc(/C=C\c2cc(OC)c(OC)c(OC)c2)cc1OP(=O)(O)O [CA-4P, Combretastatin A4P]
- IC50 [8]: 79 ± 3 nM
- IC50 [9]: 2.9 nM
- IC50 [10]: 95 ± 6 nM

Compound: O=C(Sc1cccc2cccnc12)c1ccccc1Cl [QCBT7, Quinolin-chlorobenzothiazoate]
- IC50 (HCT-116): 600 nM

Compound: COc1cc(NS(C)(=O)=O)ccc1Nc1c2ccccc2nc2ccccc12 [m-AMSA, Meta-amsacrine]
- IC50 [11]: 19 ± 1 nM
- IC50 [12]: 27 ± 5 nM
- IC50 [13]: 39 ± 4 nM
